In publication PMC11237012, “Synthesis and preliminary evaluation of novel PET probes for GSK-3 imaging” (Scientific Reports, 2024):
Several values for one entry are separate records, joined by “and”; a condition that tells them apart may be missing. Equal entries are not always repeated. Structures can show the parent of a compound that is named as a salt. Each block holds one compound with its values, some of them ahead of it.

How the values were obtained:
[1] = In vitro parallel artificial membrane permeability assay (PAMPA), blood–brain barrier permeability; settings: for Papp: PAMPA
Excerpt: To evaluate the blood–brain barrier permeability and binding affinity of the developed PET probes[^18F]2 and [^18F]6, their respective nonradioactive versions were used. For blood–brain barrier permeability evaluation, we applied in vitro parallel artificial membrane permeability assay (PAMPA) and evaluated binding affinity via an inhibition assay to determine the IC50 value, as described in method section. We further measured the stability of both PET probes, [^18F]2 and [^18F]6, using radio thin layer chromatography (radio-TLC) over time, as also described in the method section. […] The blood–brain permeability was expressed through the permeability coefficient, P (10^–6 cm/s) and -logPe.

[2] = target: T1, human GSK-3α (Homo sapiens, UniProt P49840); test: GSK-3α kinase inhibition assay (ADP-Glo); assay type: biochemical
T1 construct: purchased Promega Corporation, Madison, WI
Excerpt: (§1) Phosphorylation of glycogen synthase kinase substrate was quantified using a luminescent ADP-Glo™ Kinase assay system (Promega Corporation, Madison, WI).

[3] = target: T2, human GSK-3β (Homo sapiens, UniProt P49841); test: GSK-3β kinase inhibition assay (ADP-Glo); assay type: biochemical
T2 construct: purchased Promega Corporation, Madison, WI
Excerpt: as §1

[4] = Radiochemical stability in mouse serum (rad-TLC); assay type: in vitro ADME; settings: 37 °C
Experimental: (§2) The stability of PET probes [^18F]2 and [^18F]6 was measured in isotonic NaCl solution (0.9% NaCl) and mouse and human serums at 37 °C for up to 120 min by rad-TLC at 0 min, 30 min, 60 min and 120 min post incubation. The results obtained are presented in Fig. 5 and SI-Figs. S10–S15, SI-Table S1. […] The plausible explanation of the instability of [^18F]6 could be attributed to the covalent interaction of [^18F]6’s SO2F group with primary amines of amino acid residues present in the protein rich mouse and human serums. In fact, in an unrelated study, Zhao et al. reported formation of sulfonamide bond between sulfuryl fluoride and primary amine of conserved lysine residues of different kinases. […] Based on 2’s favorable blood–brain barrier permeability, nanomolar binding affinity and PET probe [^18F]2’s excellent stability in both mouse and human serums, further in vivo evaluations were performed only with PET probe [^18F]2.
(§3) Stability of [^18F]2 and [^18F]6 was assessed in isotonic NaCl solution and human and mouse serums. To perform this stability assay, 100 µL of [^18F]2 (~ 37.0 MBq) or 100 µL of [^18F]6 (~ 37.0 MBq) as in final formulation was added to 100 µL of human serum or mouse serum in a microcentrifuge tube. The resultant mixture was incubated at 37 °C for 120 min. To assess the radiochemical stability of the probes, a small aliquot (~ 0.5 µL) was taken out from the mixture in triplicate at 0 min, 30 min, 60 min and 120 min during incubation, and analyzed on a rad-TLC using 0.5:9.5 methanol: chloroform as a mobile phase using i-TLC to estimate the stability of [^18F]2 or [^18F]6 at different time points post-incubation. After Stability preparative processes initial i-TLC development was considered as 0 min.

[5] = Radiochemical stability in human serum (rad-TLC); assay type: in vitro ADME; settings: 37 °C
Experimental: as §2, §3

[6] = Radiochemical stability in isotonic NaCl solution (rad-TLC); assay type: physicochemical; settings: 37 °C
Experimental: as §2, §3

[7] = parameters: method as in PMID 33492962, doi:10.1002/ejoc.202201031; settings: FVB/NJ mice; cited from earlier work
[8] = parameters: method as in PMID 33492962, doi:10.1002/ejoc.202201031; settings: cited from earlier work
[9] = parameters: method as in PMID 33840834, PMID 35295885, PMID 34423266; settings: 2 min post injection; Sprague Dawley rats; cited from earlier work
[10] = target: GSK-3β; parameters: method as in PMID 33840834, PMID 35295885, PMID 34423266; settings: cited from earlier work
[11] = pH 7.4, Permeability coefficient, P, Average ± SD

T1 sequence (P49840 whole entry): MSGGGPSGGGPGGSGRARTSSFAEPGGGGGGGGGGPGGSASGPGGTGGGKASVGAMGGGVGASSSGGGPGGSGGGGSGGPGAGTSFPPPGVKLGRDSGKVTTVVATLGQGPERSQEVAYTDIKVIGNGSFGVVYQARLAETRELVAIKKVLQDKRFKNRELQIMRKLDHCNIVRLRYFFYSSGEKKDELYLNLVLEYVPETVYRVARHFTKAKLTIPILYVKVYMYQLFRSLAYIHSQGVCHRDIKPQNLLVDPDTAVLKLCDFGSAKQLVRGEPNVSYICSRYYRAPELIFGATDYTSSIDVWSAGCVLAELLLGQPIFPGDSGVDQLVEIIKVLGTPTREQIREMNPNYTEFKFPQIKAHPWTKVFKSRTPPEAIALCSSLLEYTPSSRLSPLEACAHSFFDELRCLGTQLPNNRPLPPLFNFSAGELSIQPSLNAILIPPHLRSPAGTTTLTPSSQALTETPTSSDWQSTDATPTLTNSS
T2 sequence (P49841 whole entry): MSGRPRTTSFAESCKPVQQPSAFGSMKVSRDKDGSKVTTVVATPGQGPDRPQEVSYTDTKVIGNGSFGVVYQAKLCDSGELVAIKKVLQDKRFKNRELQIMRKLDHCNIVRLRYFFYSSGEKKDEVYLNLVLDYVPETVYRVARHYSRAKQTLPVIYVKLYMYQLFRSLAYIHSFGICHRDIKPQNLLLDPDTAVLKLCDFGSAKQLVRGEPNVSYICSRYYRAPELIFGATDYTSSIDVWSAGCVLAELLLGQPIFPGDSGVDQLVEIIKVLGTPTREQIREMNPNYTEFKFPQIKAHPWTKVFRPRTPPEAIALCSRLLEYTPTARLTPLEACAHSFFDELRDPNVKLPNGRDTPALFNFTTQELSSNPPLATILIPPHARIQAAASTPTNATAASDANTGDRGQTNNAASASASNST

Papp ([1]; pH 7.4, Average ± SD): 31.6 ×10⁻⁶ cm/s
Papp [1, 11]: 36 ± 20 ×10⁻⁶ cm/s
Permeability coefficient, P, Average ± SD ([1]; pH 7.4): 38 ± 20 (n = 3) 10^–6 cm/s
Compound: O=C(Nc1cnccc1-c1ccc(F)cc1)c1ccnc(NC(=O)C2CC2)c1 [Compound 2, 2-(cyclopropanecarboxamido)-N-(4-(4-fluorophenyl)pyridin-3-yl)isonicotinamide]

Compound: O=C(Nc1cnccc1-c1ccc(OS(=O)(=O)F)cc1)c1ccnc(NC(=O)C2CC2)c1 [Compound 6, 4-(3-(2-(cyclopropanecarboxamido)isonicotinamido)pyridin-4-yl)phenyl sulfurofluoridate]
IC50 [2]: 55.7 ± 4.89 nM
Papp ([1]; pH 7.4): 8.75 ± 3.9 ×10⁻⁶ cm/s
IC50 [3]: 44 ± 2.84 nM

Papp [1, 11]: 32 ± 1 ×10⁻⁶ cm/s
Compound: CC(C)NCC(O)COc1cccc2ccccc12 (centres unmarked) [Propranolol HCl, reference compound]

Compound: O=C(Nc1cnccc1-c1ccc(OS(=O)(=O)[18F])cc1)c1ccnc(NC(=O)C2CC2)c1 [[^18F]6]
Percentage of intact probe ([4]; 30 min): 87.30 ± 8.99%
Percentage of intact probe ([4]; 60 min): 81.17± 6.38%
Percentage of intact probe ([4]; 120 min): 67.01 ± 4.93% and 67.01 ± 6.38%
Percentage of intact probe ([5]; 30 min): 92.46± 2.61% and 92.46 ± 2.6%
Percentage of intact probe ([5]; 60 min): 80.13± 14.24%
Percentage of intact probe ([5]; 120 min): 66.20 ± 6.38% and 66.20 ± 4.93%
Percentage of intact probe ([6]; 0 min): 100 ± 0.0%
Percentage of intact probe ([6]; 30 min): 100 ± 0.0%
Percentage of intact probe ([6]; 60 min): 100 ± 0.0%

Compound: O=C(Nc1cnccc1-c1ccc([18F])nc1)c1ccnc(NC(=O)C2CC2)c1 [[^18F]CNBI]
brain uptake [7]: poor
metabolic stability [8]: moderate

Compound: COc1ccc(-c2ocnc2C(=O)NCCCc2ccc([18F])nc2)cc1Cl [[^18F]OCM50]
standardized uptake value (SUV) [9]: ~ 2.0
Ki [10]: 0.28 nM
